In US12686692B2, “KRas G12D inhibitors” (Mirati Therapeutics, Inc., priority 2020, dated 2026) one finds IC50 and Kd data, which are given here for 19 compounds.

As usually defined, the IC50 is the concentration needed to halve the response being measured. By Kd is commonly meant a measure of binding affinity in units of concentration. A higher Kd goes with weaker binding.

Assay [1] concerns the target T1, KRas G12D (Homo sapiens, UniProt P01116, G12D). Put plainly: KRas G12D Binding Assay (TR-FRET displacement of labeled tracer). Set-up: corresponding to amino acids 1:169, produced at Array BioPharma; biotin (protein is biotinylated). To be noted: TR-FRET displacement of Cy5 labelled tracer, biotinylated GDP-loaded KRAS G12D (aa 1:169), 60 minute incubation at 22° C. In short, it runs like this: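 Biotinylated GDP-loaded human KRAS G12D (aa 1–169) incubated with Cy5 tracer, Eu-streptavidin and compound (2% DMSO final) in 50 mM HEPES pH 7.5, 5 mM MgCl2, 0.005% Tween-20, 1 mM DTT, 60 min at 22 °C. TR-FRET ratio converted to percent of control; IC50 at 50 POC from 4-parameter logistic fit.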
On the technique in general: TR-FRET usually uses a lanthanide donor and a delayed reading to cut background.
Target sequence in this assay (P01116 1-169 isoform P01116-2 G12D): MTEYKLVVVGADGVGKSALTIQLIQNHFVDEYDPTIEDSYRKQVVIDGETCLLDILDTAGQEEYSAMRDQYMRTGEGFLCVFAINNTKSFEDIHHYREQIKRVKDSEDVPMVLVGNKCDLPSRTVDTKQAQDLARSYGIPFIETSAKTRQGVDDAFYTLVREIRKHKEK

For assay [2], the target named is T1, KRas G12D. Nature of the assay: KRas G12D Surface Plasmon Resonance (SPR) Binding Assay. Conditions: Biacore T200, biotinylated Avidin-tagged KRAS protein on SA chip, 20 C, 1:1 binding model. Here is the method: This Example illustrates that exemplary compounds of the present invention bind to KRas G12D as measured by surface plasmon resonance (SPR). Briefly, 1 L of 1.05×HBS-Mg buffer (262.5 mM BioUltra Hepes, pH 7.5, 157.5 mM NaCl, 105 mM MgCl2, 0.525 mM TCEP, […] Brij-35) was prepared and filter sterilized using a 0.22 μm bottle top filter. Approximately 50 mL of 1.05×HBS-Mg buffer was removed and saved for future dilutions. A 50 mL aliquot of DMSO (Sigma Aldrich DMSO Lot. #SHBK2079) was added and continued to stir for 10 minutes, creating the final 1.0×HBS-Mg buffer (250 mM BioUltra Hepes pH 7.5, 150 mM NaCl, 100 mM MgCl2, 0.5 mM TCEP, 0.03% Brij-35). Biacore T200 instrument was primed using 1.0×HBS-Mg buffer before docking a GE Streptavidin (SA) chip and then primed two additional times prior to beginning the immobilization step. All immobilized protein mixtures were created using 3-5 mg/mL Biotinylated Avidin-tagged KRAS protein using the following immobilization settings: SA chip type, 1 flow cells per cycle, 720 second contact time, and 5 μL/min flow rate. Normalization of the detector was also performed during the immobilization step using the GE BiaNormalize solution. All compounds were diluted to 10 mM in 100% DMSO prior to being diluted 20× in 1.05× buffer. Another 10× dilution was created using 1.0× buffer prior to performing a series of 3× dilutions to create a compound concentration curve using the following assay settings: 20 C analysis temperature, General Settings=10 Hz data collection rate and multi-detection; Assay Steps=all set to LMW kinetics; Cycle Types=LMW kinetics (60s contact time, 120s dissociation time, 100 μL/min flow rate, extra wash after injection with 50% DMSO, flow path 1,2,3,4); Flow path detection=2-1, 4-3). Data evaluation was performed using the Biacore T200 Evaluation software and data fit to 1:1 binding model.
Target sequence in this assay (P01116 1-188 isoform P01116-2 G12D): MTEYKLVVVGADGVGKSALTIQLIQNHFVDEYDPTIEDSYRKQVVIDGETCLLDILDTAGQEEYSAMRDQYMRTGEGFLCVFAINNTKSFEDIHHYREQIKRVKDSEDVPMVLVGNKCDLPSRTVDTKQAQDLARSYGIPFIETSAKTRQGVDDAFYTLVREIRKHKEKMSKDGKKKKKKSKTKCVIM
In general terms: SPR reads the build-up and loss of mass on a sensor chip optically.

`CN1CCC[C@H]1COc1nc2c(c(N3C[C@H]4CC[C@@H](C3)N4)n1)CCN(c1ccc(Br)c3cccc(Cl)c13)C2` [Example 74, 4-((1R,5S)-3,8-diazabicyclo[3.2.1]octan-3-yl)-7-(4-bromo-8-chloronaphthalen-1-yl)-2-(((S)-1-methylpyrrolidin-2-yl)methoxy)-5,6,7,8-tetrahydropyrido[3,4-d]pyrimidine] showed an IC50 on KRas G12D [1] greater than 10 µM. At KRas G12D [2], this compound gave a Kd of 41.6 µM.
`CN1CCC[C@H]1COc1nc2c(c(N3C[C@H]4CC[C@@H](C3)N4)n1)CCN(c1cccc3c1C(CC#N)CCC3)C2` (stereo partly drawn) [Example 85, 2-(8-(4-((1R,5S)-3,8-diazabicyclo[3.2.1]octan-3-yl)-2-(((S)-1-methylpyrrolidin-2-yl)methoxy)-5,8-dihydropyrido[3,4-d]pyrimidin-7(6H)-yl)-1,2,3,4-tetrahydronaphthalen-1-yl)acetonitrile]: the affinity at KRas G12D [2], expressed as Kd, was 1.51 µM.
For `CN1CCC[C@H]1COc1nc2c(c(N3C[C@H]4CC[C@@H](C3)N4)n1)CCN(c1cccc3ccccc13)C2` [Example 70, 4-((1R,5S)-3,8-diazabicyclo[3.2.1]octan-3-yl)-2-(((S)-1-methylpyrrolidin-2-yl)methoxy)-7-(naphthalen-1-yl)-5,6,7,8-tetrahydropyrido[3,4-d]pyrimidine], the IC50 on KRas G12D [1] stood at 1.12 µM. The compound further registered a dissociation constant Kd on KRas G12D [2] of 2.1 µM.
Taken in the same sequence, the figures for `CN1CCC[C@H]1COc1nc2c(c(N3C[C@H]4CC[C@@H](C3)N4)n1)CCN(c1cccc3cccc(CCCCO)c13)C2` [Example 84, 4-(8-(4-((1R,5S)-3,8-diazabicyclo[3.2.1]octan-3-yl)-2-(((S)-1-methylpyrrolidin-2-yl)methoxy)-5,8-dihydropyrido[3,4-d]pyrimidin-7(6H)-yl)naphthalen-1-yl)butan-1-ol] were 3.69 µM and 8.71 µM.
Taken in the same sequence, the figures for `CN1CCC[C@H]1COc1nc2c(c(N3C[C@H]4CC[C@@H](C3)N4)n1)CCN(c1c(O)ccc3ccccc13)C2` [Example 78, 1-(4-((1R,5S)-3,8-diazabicyclo[3.2.1]octan-3-yl)-2-(((S)-1-methylpyrrolidin-2-yl)methoxy)-5,8-dihydropyrido[3,4-d]pyrimidin-7(6H)-yl)naphthalen-2-ol] were greater than 10 µM and 51.4 µM.
For `CN1CCC[C@H]1COc1nc2c(c(N3C[C@H]4CC[C@@H](C3)N4)n1)CCN(C1CC(O)c3ccccc31)C2` (stereo partly drawn) [Example 35, 3-(4-((1R,5S)-3,8-diazabicyclo[3.2.1]octan-3-yl)-2-(((S)-1-methylpyrrolidin-2-yl)methoxy)-5,8-dihydropyrido[3,4-d]pyrimidin-7(6H)-yl)-2,3-dihydro-1H-inden-1-ol], the IC50 on KRas G12D [1] was greater than 10 µM. Binding on KRas G12D [2] was characterised by a dissociation constant (Kd) of 570 µM.
As to `COC1CC(N2CCc3c(nc(OC[C@@H]4CCCN4C)nc3N3C[C@H]4CC[C@@H](C3)N4)C2)c2ccccc21` (stereo partly drawn) [Example 36, 4-((1R,5S)-3,8-diazabicyclo[3.2.1]octan-3-yl)-7-(3-methoxy-2,3-dihydro-1H-inden-1-yl)-2-(((S)-1-methylpyrrolidin-2-yl)methoxy)-5,6,7,8-tetrahydropyrido[3,4-d]pyrimidine], the IC50 on KRas G12D [1] is greater than 10 µM. This compound also returned an equilibrium dissociation constant (Kd) at KRas G12D [2] of 24.3 µM.
Taken in the same sequence, the figures for `CN1CCC[C@H]1COc1nc2c(c(N3C[C@H]4CC[C@@H](C3)N4)n1)CCN(c1nc(N)nc3ccccc13)C2` [Example 59, 4-(4-((1R,5S)-3,8-diazabicyclo[3.2.1]octan-3-yl)-2-(((S)-1-methylpyrrolidin-2-yl)methoxy)-5,8-dihydropyrido[3,4-d]pyrimidin-7(6H)-yl)quinazolin-2-amine] were 7.5 µM and 598 µM.
Compound `CN1CCC[C@H]1COc1nc2c(c(N3C[C@@H]4C[C@H](CO)[C@H](C3)N4)n1)CCN(c1cc(O)cc3ccccc13)C2` [Example 120, 4-(4-((1S,5R,6S)-6-(hydroxymethyl)-3,8-diazabicyclo[3.2.1]octan-3-yl)-2-(((S)-1-methylpyrrolidin-2-yl)methoxy)-5,8-dihydropyrido[3,4-d]pyrimidin-7(6H)-yl)naphthalen-2-ol] showed a Kd at KRas G12D [2] of 1.4 µM.
Regarding `CN1CCC[C@H]1COc1nc2c(c(N3C[C@H]4C/C(=C\C#N)[C@@H](C3)N4)n1)CCN(c1cccc3cccc(Cl)c13)C2` (single isomer, unassigned) [Example 89], at KRas G12D [1], the IC50 is greater than 10 µM. Further, the Kd on KRas G12D [2] came to 27.1 µM.
Taken in the same sequence, the figures for `CN1CCC[C@H]1COc1nc2c(c(N3C[C@H]4CC[C@@H](C3)N4)n1)CCN(c1c(F)c(O)c(F)c3ccccc13)C2` [Example 25, 4-(4-((1R,5S)-3,8-diazabicyclo[3.2.1]octan-3-yl)-2-(((S)-1-methylpyrrolidin-2-yl)methoxy)-5,8-dihydropyrido[3,4-d]pyrimidin-7(6H)-yl)-1,3-difluoronaphthalen-2-ol] were 6.79 µM and 0.847 µM.
Taken in the same sequence, the figures for `Cc1ccc2cccc(N3CCc4c(nc(OC[C@@H]5CCCN5C)nc4N4C[C@H]5CC[C@@H](C4)N5)C3)c2c1` [Example 110, 4-((1R,5S)-3,8-diazabicyclo[3.2.1]octan-3-yl)-7-(7-methylnaphthalen-1-yl)-2-(((S)-1-methylpyrrolidin-2-yl)methoxy)-5,6,7,8-tetrahydropyrido[3,4-d]pyrimidine] were 3.17 µM and 3.23 µM.
The compound `CN1CCC[C@H]1COc1nc2c(c(N3C[C@H]4CC[C@@H](C3)N4)n1)CCN(c1cncc3ccccc13)C2` [Example 57, 4-((1R,5S)-3,8-diazabicyclo[3.2.1]octan-3-yl)-7-(isoquinolin-4-yl)-2-(((S)-1-methylpyrrolidin-2-yl)methoxy)-5,6,7,8-tetrahydropyrido[3,4-d]pyrimidine] yielded an IC50 on KRas G12D [1] greater than 10 µM. At KRas G12D [2], this compound had a Kd of 98.5 µM.
Consider `CN1CCC[C@H]1COc1nc2c(c(N3C[C@H]4CC[C@@H](C3)N4)n1)CC(=O)N(Cc1ccccc1)C2` [Example 53, 7-benzyl-4-((1R,5S)-3,8-diazabicyclo[3.2.1]octan-3-yl)-2-(((S)-1-methylpyrrolidin-2-yl)methoxy)-7,8-dihydropyrido[3,4-d]pyrimidin-6(5H)-one], for which the IC50 at KRas G12D [1] came out at 5.26 µM. The compound further came in with an equilibrium dissociation constant (Kd) on KRas G12D [2] greater than 1000 µM.
Taken in the same sequence, the figures for `CN1CCC[C@H]1COc1nc2c(c(N3C[C@H]4CC[C@@H](C3)N4)n1)CCN(c1cccc3cccc(F)c13)C2` [Example 73, 4-((1R,5S)-3,8-diazabicyclo[3.2.1]octan-3-yl)-7-(8-fluoronaphthalen-1-yl)-2-(((S)-1-methylpyrrolidin-2-yl)methoxy)-5,6,7,8-tetrahydropyrido[3,4-d]pyrimidine] were 1.1 µM and 3.16 µM.
In turn, `COc1nc2c(c(N3C[C@H]4CC[C@@H](C3)N4)n1)CCN(c1cccc3cccc(C)c13)C2` [Example 22, 4-((1R,5S)-3,8-diazabicyclo[3.2.1]octan-3-yl)-2-methoxy-7-(8-methylnaphthalen-1-yl)-5,6,7,8-tetrahydropyrido[3,4-d]pyrimidine] gave an IC50 at KRas G12D [1] of 7.86 µM. At KRas G12D [2], this compound displayed a Kd of 302 µM.
The corresponding values for `O[C@@H]1C[C@@H]2CN(c3nc(OCCC(F)(F)F)nc4c3CCN(c3cccc5cccc(Cl)c35)C4)C[C@H]1N2` [Example 86, (1R,5R,6R)-3-(7-(8-chloronaphthalen-1-yl)-2-(3,3,3-trifluoropropoxy)-5,6,7,8-tetrahydropyrido[3,4-d]pyrimidin-4-yl)-3,8-diazabicyclo[3.2.1]octan-6-ol] are 2.9 µM and 33.2 µM.
The corresponding values for `CC1CCCc2cccc(N3CCc4c(nc(OC[C@@H]5CCCN5C)nc4N4C[C@H]5CC[C@@H](C4)N5)C3)c21` (stereo partly drawn) [Example 82, 4-((1R,5S)-3,8-diazabicyclo[3.2.1]octan-3-yl)-7-(8-methyl-5,6,7,8-tetrahydronaphthalen-1-yl)-2-(((S)-1-methylpyrrolidin-2-yl)methoxy)-5,6,7,8-tetrahydropyrido[3,4-d]pyrimidine] are 0.061 µM and 0.149 µM.
For `Cc1ccc2[nH]ncc2c1N1CCc2c(nc(OC[C@@H]3CCCN3C)nc2N2C[C@H]3CC[C@@H](C2)N3)C1` [Example 3, 4-((1R,5S)-3,8-diazabicyclo[3.2.1]octan-3-yl)-7-(5-methyl-1H-indazol-4-yl)-2-(((S)-1-methylpyrrolidin-2-yl)methoxy)-5,6,7,8-tetrahydropyrido[3,4-d]pyrimidine], the IC50 at KRas G12D [1] was found to be 1.32 µM. The same compound returned a Kd at KRas G12D [2] of 6.37 µM.
